The assay deals with diamondback moth (Plutella xylostella). Nature of the assay: Insecticidal effect on diamondback moth (Test Example 1). Format: in vivo. Particulars: mortality judged according to the criterion shown in Test Example 1. Here is the method:
Insecticidal effect on diamondback moth (Plutella xylostella) Adult diamondback moths were released and allowed to oviposit on a Chinese cabbage seedling. […] After air-drying, it was allowed to stand in a room thermostated at 25° C. Six days after the immersion, the hatched insects were counted. The mortality was calculated according to the following equation and the insecticidal effect was judged according to the criterion shown below. The test was carried out with triplicate groups of 10 insects. [table]

The structures appear in SMILES notation.

Take `CC(C)NC(=O)c1c(C(=O)Nc2cc(F)ccc2F)cccc1[N+](=O)[O-]` [compound 640]: the “Insecticidal effect on diamondback moth (Test Example 1), judged grade” value (“Insecticidal effect on diamondback moth” below) was “A (100)”.

For `CC(C)NC(=O)c1c(C(=O)Nc2ccc(F)c(F)c2)cccc1[N+](=O)[O-]` [compound 642], the “Insecticidal effect on diamondback moth” value is on record as “A (100)”.

As to `CC(C)NC(=O)c1c(C(=O)Nc2ccc(F)c(F)c2F)cccc1[N+](=O)[O-]` [compound 645], the “Insecticidal effect on diamondback moth” value is “A (100)”.

For `Cc1cccc(C)c1NC(=O)c1cccc([N+](=O)[O-])c1C(=O)NC(C)C` [compound 650], the “Insecticidal effect on diamondback moth” value is “A (100)”.

Regarding `Cc1cc(C)c(NC(=O)c2cccc([N+](=O)[O-])c2C(=O)NC(C)C)c(C)c1` [compound 652], the “Insecticidal effect on diamondback moth” value is given as “A (100)”.

As to `CCc1cccc(CC)c1NC(=O)c1cccc([N+](=O)[O-])c1C(=O)NC(C)C` [compound 653], the “Insecticidal effect on diamondback moth” value is listed as “A (100)”.

For `Cc1cc(NC(=O)c2cccc([N+](=O)[O-])c2C(=O)NC(C)C)c(F)cc1Cl` [compound 657], the “Insecticidal effect on diamondback moth” value is “D (79-50)”.

Regarding `CC(C)NC(=O)c1c(C(=O)Nc2ccc(OC(F)F)c(Cl)c2)cccc1[N+](=O)[O-]` [compound 658], the “Insecticidal effect on diamondback moth” value is reported as “A (100)”.

Consider `CC(C)NC(=O)c1c(C(=O)Nc2cc(Cl)c(OC(F)F)c(Cl)c2)cccc1[N+](=O)[O-]` [compound 659], for which the “Insecticidal effect on diamondback moth” value is “A (100)”.

Take `CC(C)NC(=O)c1c(C(=O)Nc2c(Cl)cc(C(F)(F)F)cc2Cl)cccc1[N+](=O)[O-]` [compound 662]: the “Insecticidal effect on diamondback moth” value is on record as “A (100)”.

As for `Cc1cc(Cl)c(Cl)cc1NC(=O)c1cccc([N+](=O)[O-])c1C(=O)NC(C)C` [compound 668], the “Insecticidal effect on diamondback moth” value is listed as “A (100)”.

For `Cc1ccc(Br)cc1NC(=O)c1cccc([N+](=O)[O-])c1C(=O)NC(C)C` [compound 672], the “Insecticidal effect on diamondback moth” value is “A (100)”.

In the case of `CCc1ccc(F)cc1NC(=O)c1cccc([N+](=O)[O-])c1C(=O)NC(C)C` [compound 677], the “Insecticidal effect on diamondback moth” value is given as “A (100)”.

Consider `CC(C)NC(=O)c1c(C(=O)Nc2ccc(Cl)c(C(F)(F)F)c2)cccc1[N+](=O)[O-]` [compound 678], for which the “Insecticidal effect on diamondback moth” value was “A (100)”.

For `Cc1ccc([N+](=O)[O-])cc1NC(=O)c1cccc([N+](=O)[O-])c1C(=O)NC(C)C` [compound 708], the “Insecticidal effect on diamondback moth” value is recorded as “D (79-50)”.

For the compound `CSc1ccc(NC(=O)c2cccc([N+](=O)[O-])c2C(=O)NC(C)C)c(C)c1C` [compound 720], the “Insecticidal effect on diamondback moth” value is “A (100)”.

As to `Cc1cc(SC(C)C)ccc1NC(=O)c1cccc([N+](=O)[O-])c1C(=O)NC(C)C` [compound 721], the “Insecticidal effect on diamondback moth” value is “A (100)”.

Take `CC(C)NC(=O)c1c(C(=O)Nc2ccc3c(c2)OCO3)cccc1[N+](=O)[O-]` [compound 733]: the “Insecticidal effect on diamondback moth” value is on record as “A (100)”.

Take `CC(C)NC(=O)c1c(C(=O)Nc2ccc3c(c2)nc(C(F)(F)F)n3C)cccc1[N+](=O)[O-]` [compound 737]: the “Insecticidal effect on diamondback moth” value is “A (100)”.

With `Cc1ccc(Cl)cc1NC(=O)c1cc([N+](=O)[O-])ccc1C(=O)NC(C)C` [compound 738], the “Insecticidal effect on diamondback moth” value is listed as “D (79-50)”.

As for `Cc1cc(C(F)(F)F)ccc1NC(=O)c1c(C(=O)NC(C)C)cccc1[N+](=O)[O-]` [compound 742], the “Insecticidal effect on diamondback moth” value is given as “A (100)”.

Turning to `Cc1cc(OC(F)(F)C(F)C(F)(F)F)ccc1NC(=O)c1c(C(=O)NC(C)C)cccc1[N+](=O)[O-]` (stereo not drawn) [compound 743], the “Insecticidal effect on diamondback moth” value is “D (79-50)”.

For `Cc1cc(Cl)ccc1NC(=O)c1cccc(C#N)c1C(=O)NC(C)C` [compound 744], the “Insecticidal effect on diamondback moth” value is “C (89-80)”.

For `Cc1cc(Cl)ccc1NC(=O)c1c(C#N)cccc1C(=O)NC(C)C` [compound 745], the “Insecticidal effect on diamondback moth” value is “D (79-50)”.

On to `Cc1cccc(C(=O)Nc2ccc(OC(F)(F)F)cc2)c1C(=O)NC(C)C` [compound 749], for which the “Insecticidal effect on diamondback moth” value is given as “A (100)”.

Turning to `Cc1ccc(Cl)cc1NC(=O)c1c(C(=O)NC(C)C)cccc1C(F)(F)F` [compound 766], the “Insecticidal effect on diamondback moth” value is “A (100)”.

On to `Cc1cc(Cl)ccc1NC(=O)c1cccc([S+]([O-])C(C)C)c1C(=O)NC(C)C` (stereo not drawn) [compound 793], for which the “Insecticidal effect on diamondback moth” value was “A (100)”.

As for `Cc1cc(Cl)ccc1NC(=O)c1cccc(S(=O)(=O)C(C)C)c1C(=O)NC(C)C` [compound 796], the “Insecticidal effect on diamondback moth” value is “A (100)”.

Turning to `COC(=O)c1cccc(C(=O)NC(C)C)c1C(=O)Nc1ccc(Cl)cc1C` [compound 802], the “Insecticidal effect on diamondback moth” value was “D (79-50)”.

As to `CC(C)NC(=O)c1cccc(-c2ccccc2)c1C(=O)Nc1ccc(OC(F)(F)F)cc1` [compound 808], the “Insecticidal effect on diamondback moth” value is recorded as “A (100)”.

Regarding `CC(C)N(C)C(=O)c1ccccc1C(=O)Nc1ccc(C(F)(F)F)cc1` [compound 824], the “Insecticidal effect on diamondback moth” value is listed as “A (100)”.

With `Cc1cc(OC(F)F)ccc1NC(=O)c1cccc([N+](=O)[O-])c1C(=O)N(C)C(C)C` [compound 825], the “Insecticidal effect on diamondback moth” value is on record as “A (100)”.

As to `Cc1cc(Cl)ccc1N(C)C(=O)c1ccccc1C(=O)NC(C)C` [compound 827], the “Insecticidal effect on diamondback moth” value is “A (100)”.

Turning to `CCCCNC(=O)c1c(C(=O)Nc2cc(Cl)ccc2C)cccc1[N+](=O)[O-]` [compound 830], the “Insecticidal effect on diamondback moth” value is “C (89-80)”.

As for `Cc1cc(OC(F)F)ccc1NC(=O)c1cccc([N+](=O)[O-])c1C(=O)NCC(C)C` [compound 832], the “Insecticidal effect on diamondback moth” value was “A (100)”.

For `CCC(C)NC(=O)c1ccccc1C(=O)Nc1ccc(C(F)(F)F)cc1` (stereo not drawn) [compound 835], the “Insecticidal effect on diamondback moth” value is on record as “A (100)”.

For the compound `CCC(C)NC(=O)c1cccc(Cl)c1C(=O)Nc1ccc(OC(F)F)cc1C` (stereo not drawn) [compound 837], the “Insecticidal effect on diamondback moth” value was “A (100)”.

For the compound `CCC(CC)NC(=O)c1c(C(=O)Nc2ccc(OC(F)F)cc2C)cccc1[N+](=O)[O-]` [compound 845], the “Insecticidal effect on diamondback moth” value is recorded as “A (100)”.

`Cc1cc(OC(F)F)ccc1NC(=O)c1cccc([N+](=O)[O-])c1C(=O)NC(C)C(C)C` (stereo not drawn) [compound 846]: the “Insecticidal effect on diamondback moth” value is recorded as “A (100)”.

As to `O=C(Nc1ccc(C(F)(F)F)cc1)c1ccccc1C(=O)NC1CC1` [compound 848], the “Insecticidal effect on diamondback moth” value is “A (100)”.

For the compound `Cc1ccc(Cl)cc1NC(=O)c1cccc([N+](=O)[O-])c1C(=O)NC1CCC1` [compound 854], the “Insecticidal effect on diamondback moth” value is reported as “A (100)”.

On to `Cc1ccc(F)cc1NC(=O)c1cccc([N+](=O)[O-])c1C(=O)NC1CCC1` [compound 855], for which the “Insecticidal effect on diamondback moth” value was “A (100)”.

In the case of `Cc1ccc(Cl)cc1NC(=O)c1cccc([N+](=O)[O-])c1C(=O)NC1CCCCC1` [compound 859], the “Insecticidal effect on diamondback moth” value is “D (79-50)”.

For `Cc1ccc(F)cc1NC(=O)c1cccc([N+](=O)[O-])c1C(=O)NCC1CC1` [compound 860], the “Insecticidal effect on diamondback moth” value is “A (100)”.

Consider `Cc1ccc(F)cc1NC(=O)c1cccc([N+](=O)[O-])c1C(=O)NCCCl` [compound 861], for which the “Insecticidal effect on diamondback moth” value is “A (100)”.

Take `Cc1ccc(Cl)cc1NC(=O)c1ccccc1C(=O)NCC(F)(F)F` [compound 864]: the “Insecticidal effect on diamondback moth” value is listed as “A (100)”.

As for `C=CCNC(=O)c1ccccc1C(=O)Nc1ccc(C(F)(F)F)cc1` [compound 865], the “Insecticidal effect on diamondback moth” value was “A (100)”.

In the case of `C=CCNC(=O)c1c(C(=O)Nc2cc(Cl)ccc2C)cccc1[N+](=O)[O-]` [compound 866], the “Insecticidal effect on diamondback moth” value is given as “D (79-50)”.

Take `C#CCNC(=O)c1c(C(=O)Nc2ccc(OC(F)F)cc2C)cccc1[N+](=O)[O-]` [compound 870]: the “Insecticidal effect on diamondback moth” value was “A (100)”.

Regarding `COCCNC(=O)c1c(C(=O)Nc2cc(Cl)ccc2C)cccc1[N+](=O)[O-]` [compound 871], the “Insecticidal effect on diamondback moth” value was “A (100)”.

Consider `CCOC(CNC(=O)c1c(C(=O)Nc2ccc(OC(F)F)cc2C)cccc1[N+](=O)[O-])OCC` [compound 875], for which the “Insecticidal effect on diamondback moth” value is “A (100)”.

Regarding `Cc1ccc(Cl)cc1NC(=O)c1cccc([N+](=O)[O-])c1C(=O)NC(C)c1ccccc1` (stereo not drawn) [compound 878], the “Insecticidal effect on diamondback moth” value was “C (89-80)”.

For the compound `Cc1cc(Br)ccc1NC(=O)c1cccc([N+](=O)[O-])c1C(=O)NCc1cccnc1` [compound 888], the “Insecticidal effect on diamondback moth” value is recorded as “D (79-50)”.

With `CC(C)NC(=O)c1cccc(F)c1C(=O)Nc1ccc(Oc2ccc(C(F)(F)F)cc2Cl)cc1F` [compound 902], the “Insecticidal effect on diamondback moth” value is “A (100)”.

As to `CC(C)NC(=O)c1cccc(Cl)c1C(=O)Nc1ccc(Oc2ccc(C(F)(F)F)cc2Cl)cc1F` [compound 904], the “Insecticidal effect on diamondback moth” value is “A (100)”.

As for `CC(C)NC(=O)c1cccc(Cl)c1C(=O)Nc1ccc(C=C(Cl)C(F)(F)F)cc1` [compound 912], the “Insecticidal effect on diamondback moth” value is recorded as “A (100)”.

Consider `CC(C)NC(=O)c1c(Cl)cccc1C(=O)Nc1ccc(C=C(Br)Br)cc1` [compound 913], for which the “Insecticidal effect on diamondback moth” value was “A (100)”.

The record behind these values is patent publication US6362369B1, “Phthalic acid diamide derivatives fluorine-containing aniline compounds as starting material, agricultural and horticultural insecticides, and a method for application of the insecticides” (Nihon Nohyaku Co., Ltd., priority 1997, dated 2002).
